Structures can show the parent of a compound that is named as a salt. Where two headings read alike, the source gives them in different places.
Assays:
[1] = tested on: HSCs; assay: Targeted integration of HLA-E repair template at the B2M locus in HSCs (B2M TALEN + AAV-HLA-E, flow cytometry of HLA-E positive cells); assay type: cell-based, human
Source text: (§1) The targeted sequences are […]gctcgcgctactc[…]
For HSCs, AAV-HLA-E particles was thawed on ice and aliquot to transduce each of the HSC samples at 10^4 viral genome per cell (vg/cell).

[2] = tested on: primary T-cells; details: Example 3, FIG. 3, TRAC TALEN + AAV-CAR-MESO, without chloroquine 29%
Source text: as §1

i53: mRNAs encoding i53 (SEQ ID NO. 40), a 53BP1 inhibitor, co-electroporated with B2M TALEN
percentage of HLA-E positive cells ([1]; Example 6, FIGS. 6B and 6D, B2M TALEN + 4 μg/million cells mRNAs encoding i53 + AAV-HLA-E, without chloroquine, control 31.5%): 39.9%

CCN(CCO)CCCC(C)Nc1ccnc2cc(Cl)ccc12 (centres unmarked) [hydroxychloroquine, 7-Chloro-4-[4-(N-ethyl-N-b-hydroxyethylamino)-1-methylbutylamino]quinoline sulfate]
percentage of HLA-E positive cells ([1]; Example 5, FIG. 5, B2M TALEN + AAV-HLA-E, compound 0.02 mM, without any compound 33.3%): 43.4%

CCN(CC)CCCC(C)Nc1ccnc2cc(Cl)ccc12 (centres unmarked) [chloroquine, N4-(7-chloroquinolin-4-yl)-N1,N1-diethylpentane-1,4-diamine diphosphate]
CAR positive cells (nuclease-induced targeted integration at TRAC locus) ([2]; chloroquine 0.05 mM): 35% | CAR positive cells (nuclease-induced targeted integration at TRAC locus) ([2]; second chloroquine concentration (0.1 mM per first sentence)): 33.8% | HLA-E expression (reflects targeted integration at the B2M locus) ([1]; Example 2, FIG. 2, B2M TALEN with HLA-E repair matrix, chloroquine 0.1 mM, without chloroquine 23.4%): ~38% | optimum CQ dose for HLA-E positive cells ([1]; Example 4, FIG. 4, B2M TALEN + AAV-HLA-E): 0.02 nM | percentage of HLA-E positive cells ([1]; Example 6, FIG. 6E, B2M TALEN + i53 mRNAs (inhibition of 53BP1) + AAV-HLA-E combined with chloroquine 0.02 mM, control 31.5%): 63.6% | percentage of HLA-E positive cells ([1]; Example 6, FIGS. 6B and 6C, B2M TALEN + AAV-HLA-E, without 53BP1 inhibition, chloroquine 0.02 mM, without any compound 31.5%): 53.4%
